The results in this text go back to patent US20240246960A1 (adMare Therapeutics Society, priority 2021, published 2024).

One series has as its target T1, DNA-PK (Homo sapiens, UniProt P78527).
T1 construct: purchased Invitrogen PR9107A
Description: DNA-PK Assay for Biochemical Enzymatic Inhibition (ADP Glo Kinase assay). Particulars: Table 1. In a few lines: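 Human DNA-PK (25 ng) preincubated 15 min with compounds (ten three-fold dilutions) in HEPES pH 7.5, MgCl2, KCl, calf thymus DNA buffer, then substrate 434.4 μM and ATP 64.4 μM (final) for 60 min at room temperature. ADP-Glo luminescence; percent inhibition fitted by four-parameter regression for IC50.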
On the technique in general: ADP-Glo turns the ADP formed in a reaction into a luminescent signal.

Series [1] in a line: Microsomal stability assay, mouse liver microsomes. The note with it: for microsomal CLint at 0.1 uM: male, CD-1, mouse, liver microsomes, pH 7.4, Microsomal Stability Mouse Clint, 0.1 mg/mL microsomes, 0.1 uM compound. In general terms: Liver microsomes are a subcellular fraction often used to study metabolism.
Protocol: Mouse liver microsomes were obtained from a pool of 250 or more male CD-1 mice. […] Final microsomal concentration was 0.1 mg/mL and test compound concentration was 0.1 uM with a maximum of 0.01% DMSO. The test compound was pre-incubated with pooled liver microsomes in phosphate buffer (pH 7.4) for 5 min in a 37° C. shaking water bath. The reaction was initiated by adding NADPH-generating system and incubated for 0, 15, 30, 45, and 60 min. The reaction was stopped by transferring the incubation mixture to acetonitrile/methanol. Samples were then mixed and centrifuged. Supernatants were used for HPLC-MS/MS analysis. The HPLC system consisted of a binary LC pump with autosampler, a C-18 column, and a gradient. Peak areas corresponding to the test compound were recorded. The compound remaining was calculated by comparing the peak area at each time point to time zero. The half-life was calculated from the slope of the initial linear range of the logarithmic curve of compound remaining (%) vs. time, assuming first order kinetics. In addition, the intrinsic clearance (Clint) was calculated from the half-life.
Series [2] addresses T2, DNA-PK phosphorylation at Serine 2056 (Homo sapiens, UniProt P78527).
T2 construct: host or cells: FaDu
Description: Cellular Assay for Inhibition of DNA-PK Phosphorylation at Serine 2056 (FaDu cells, neocarzinostatin, sandwich ELISA). The series is classed as cell-based. The note with it: Table 1. The method, boiled down: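 Readout was pSer2056 and total DNA-PK, measured by sandwich ELISA on protein-normalized lysates. Prior to lysis, compound was applied to FaDu cells for 1 h (0.3% DMSO), followed by 2 h of 1 μg/mL neocarzinostatin. IC50 values were fitted from log concentration versus % inhibition normalized to DMSO and NCS controls.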

Series [3] has as its target T3, pDNA-PK ser2056 induction in HCT116 spheroids (Homo sapiens, UniProt P78527).
T3 construct: endogenous in cells; host or cells: HCT116 multicellular tumour spheroids
Description: Multicellular tumour spheroid + radiation, pDNA-PK inhibition, HCT116. In kind it is cell-based. The note with it: 20 Gy. As to the method: Multicellular tumour spheroids determination of compound inhibition of pDNA-PK induction following radiation. Tumour spheroids were grown to approximately 0.5 mm in diameter and irradiated with 20 Gy in combination with inhibitor test compounds to determine their potency. Inhibitor concentration for 50% reduction in pDNA-PK induction (IC50) was determined via immunohistochemical staining in spheroid cryosections taken 2 hours following radiation.
Spheroid, Cell Line: […], Immunohistochemical endpoint, pDNA-PK inhibition, EC50 in μm.
Spheroid+radiation pDNA-PK. Radiation: 20 Gy. Drug: serial dilution 5 or 10 μM down to 3.5 nM (11 wells). Spheroids: 3-6 spheroids per well (300-500 μm diameter). 20% O2 and 5% CO2. 96 well plate format.
Protocol: pre-incubate 1 hours with drug, irradiate with 20 Gy, post-incubate 2 hours with drug, freeze and cryosection ×3 replicates.
Endpoint: fluorescent immunostin pDNA-PK ser2056 and image on microscope.
Analysis: determine EC50 concentration that decreases pDNA-PK induction by 50% after radiation.
Multicellular tumour spheroids determination of compound inhibition of pDNA-PK induction following radiation. Tumour spheroids were grown to approximately 0.5 mm in diameter and irradiated with 20 Gy in combination with inhibitor test compounds to determine their potency. Inhibitor concentration for 50% reduction in pDNA-PK induction (IC50) was determined via immunohistochemical staining in spheroid cryosections taken 2 hours following radiation. For cell survival endpoint 8 Gy radiation was used and 3 hours following radiation spheroids were dissociated, counted and plated for colony forming endpoint.
Spheroid+radiation pDNA-PK. Radiation: 20 Gy. Drug: serial dilution 5 or 10 μM down to 3.5 nM (11 wells). Spheroids: 3-6 spheroids per well (300-500 μm diameter). 20% O2 and 5% CO2. 96 well plate format. Endpoint: fluorescent immunostain pDNA-PK ser2056 and image on microscope. Analysis: determine EC50 concentrations that decreases pDNA-PK induction […] after irradiation.
Multicellular tumour spheroids were used to determine potency of test compounds in a 3D tissue environment using inhibition of pDNA-PK induction following radiation or cell survival as the endpoint. For the pDNA-PK endpoint HCT116 or FaDU tumour spheroids were grown to approximately 0.5 mm in diameter and irradiated with 20 Gy in combination with inhibitor test compounds to determine their potency. Experiments were carried out in 96 well plates containing 0.7 mls of MEM media containing 10% FBS and 10 mM glucose under 20% O2 & 5% CO2 at 37° C. Following dilution of compounds 1:1000 from DMSO stocks, compounds were serially diluted from 10 μM down to 3.5 nM and 5-10 spheroids added. 96 well plates were constantly stirred to avoid spheroids settling during the course of the experiment. The inhibitor concentration for 50% reduction in pDNA-PK induction (EC50) was determined via immunohistochemical staining in spheroid cryosections taken 2 hours following radiation using anti-pDNA-PK (ser 2056) and fixed immediately in formalin following sectioning. For cell survival endpoint 8 Gy radiation was used and, 3 hours following radiation, spheroids were dissociated, counted and plated for colony forming endpoint. Data presented in the table compound potency as EC50 [μM].

The mark [4] stands for this setting: Example 7, spheroid, cell line HCT115 [sic], 20% O2, read-out: EC50 (pDNA-PK inhibition, immunohistochemical endpoint).
Setting [5] is: Example 8, spheroid, read-out: Cell line: HCT116 Immunohistochemical endpoint pDNA-PK inhibition EC50.
[6] abbreviates: Example 9 Study 2, 20% O2, read-out: Spheroid Cell line: HCT116 Immunohistochemical endpoint pDNA-PK inhibition EC50.

By IC50 is commonly meant the concentration needed to halve the response being measured. The term microsomal CLint denotes the rate of metabolic loss divided by the concentration. Broadly, the EC50 is the concentration giving half of the maximal effect.

Read-outs that look alike come from different tables or passages of the source.

In the case of `C[C@]1(n2ccnc2)CC[C@@H](Oc2nc(N3CCOCC3)cc3ncccc23)CC1` [Compound 11, 4-(5-(((1s,4s)-4-(1H-imidazol-1-yl)-4-methylcyclohexyl)oxy)-1,6-naphthyridin-7-yl)morpholine], the IC50 at DNA-PK fell in the range of 10 to 150 nM. Further, in series [1], the “Microsomal Stability (mouse) % rem. 60 min” value was “E (% remaining = 0-25%)” and the intrinsic metabolic clearance (microsomal CLint) at 0.1 uM is more than 116 µL/min/mg.

For the molecule `O=C(N[C@H]1CC[C@@H](Oc2nc(N3CCOCC3)cc3ncccc23)CC1)N1CCOCC1` [Compound 14, N-((1s,4s)-4-((7-morpholino-1,6-naphthyridin-5-yl)oxy)cyclohexyl)morpholine-4-carboxamide], the IC50 fell in the range of 1 to 10 nM at DNA-PK and 100 to 1000 nM in series [2]. Moreover, the 50% effective concentration (EC50) in series [3] (setting [4]), in series [3] (setting [5]) and in series [3] (setting [6]) was 1000 to 10000 nM throughout. Moreover, in series [1], the “Microsomal Stability (mouse) % rem. 60 min” value is on record as “G (% remaining = 50-75%)”. The molecule further showed a microsomal CLint at 0.1 uM in series [1] of less than 116 µL/min/mg.

For `FC(F)(F)c1cnn([C@H]2CC[C@@H](Oc3nc(N4CCOCC4)cc4ncccc34)CC2)c1` [Compound 17b, 4-(5-(((1s,4s)-4-(4-(trifluoromethyl)-1H-pyrazol-1-yl)cyclohexyl)oxy)-1,6-naphthyridin-7-yl)morpholine], at DNA-PK, the IC50 was in the range of 10 to 150 nM. Also, in series [1], the “Microsomal Stability (mouse) % rem. 60 min” value was “E (% remaining = 0-25%)” and the microsomal CLint at 0.1 uM is more than 116 µL/min/mg.

Turning to `Cc1nn([C@H]2CC[C@@H](Oc3nc(N4CCOCC4)cc4ncccc34)CC2)cc1C(F)(F)F` [Compound 17g, 4-(5-(((1s,4s)-4-(3-methyl-4-(trifluoromethyl)-1H-pyrazol-1-yl)cyclohexyl)oxy)-1,6-naphthyridin-7-yl)morpholine], the 50% inhibitory concentration (IC50) on DNA-PK lay within 1 to 10 nM. For the same molecule, the IC50 in series [2] fell in the range of 1000 to 10000 nM. In series [1], the “Microsomal Stability (mouse) % rem. 60 min” value was “E (% remaining = 0-25%)” and the intrinsic clearance (microsomal CLint) at 0.1 uM is more than 116 µL/min/mg.

For the molecule `c1cnc2cc(N3CCOCC3)nc(O[C@H]3CC[C@@H](n4cnnn4)CC3)c2c1` [Compound 17l, 4-(5-(((1s,4s)-4-(1H-tetrazol-1-yl)cyclohexyl)oxy)-1,6-naphthyridin-7-yl)morpholine], in series [1], the “Microsomal Stability (mouse) % rem. 60 min” value is listed as “E (% remaining = 0-25%)” and the microsomal CLint at 0.1 uM was more than 116 µL/min/mg.

On to `c1cnc2cc(N3CCOCC3)nc(O[C@H]3CC[C@@H](n4ncnn4)CC3)c2c1` [Compound 17m, 4-(5-(((1s,4s)-4-(2H-tetrazol-2-yl)cyclohexyl)oxy)-1,6-naphthyridin-7-yl)morpholine], for which the half-maximal inhibitory concentration (IC50) at DNA-PK fell in the range of 1 to 10 nM; in series [2], 100 to 1000 nM. Moreover, the concentration for a half-maximal effect (EC50) in series [3] (setting [4]), in series [3] (setting [5]) and in series [3] (setting [6]) was 1000 to 10000 nM in each case. Besides, the “Microsomal Stability (mouse) % rem. 60 min” value in series [1] is “E (% remaining = 0-25%)”. This molecule also came in with an intrinsic clearance (microsomal CLint) at 0.1 uM in series [1] of more than 116 µL/min/mg.

Consider `Brc1cnc2cc(N3CCOCC3)nc(O[C@H]3CC[C@@H](Nc4ncccn4)CC3)c2c1` [Compound 18a, N-((1s,4s)-4-((3-Bromo-7-morpholino-1,6-naphthyridin-5-yl)oxy)cyclohexyl)pyrimidin-2-amine], for which the concentration for half-maximal inhibition (IC50) at DNA-PK lay within 1 to 10 nM; in series [2], 100 to 1000 nM. The EC50 in series [3] (setting [4]), in series [3] (setting [5]) and in series [3] (setting [6]) was 1000 to 10000 nM throughout. Moreover, the “Microsomal Stability (mouse) % rem. 60 min” value in series [1] is listed as “E (% remaining = 0-25%)”. In series [1], this molecule gave a microsomal CLint at 0.1 uM of more than 116 µL/min/mg.

As for `c1cnc(N[C@H]2CC[C@H](Oc3nc(N4CCOCC4)cc4ncccc34)CC2)nc1` [Compound 24, N-((1r,4r)-4-((7-morpholino-1,6-naphthyridin-5-yl)oxy)cyclohexyl)pyrimidin-2-amine], the IC50 at DNA-PK is 10 to 150 nM. Besides, in series [1], the “Microsomal Stability (mouse) % rem. 60 min” value is on record as “F (% remaining = 25-50%)” and the microsomal CLint at 0.1 uM was more than 116 µL/min/mg.

For `O=C(N[C@H]1CC[C@@H](Oc2nc(N3CCOCC3)cc3ncc(Br)cc23)CC1)c1ncccn1` [Compound 176, N-((1s,4s)-4-((3-bromo-7-morpholino-1,6-naphthyridin-5-yl)oxy)cyclohexyl)pyrimidine-2-carboxamide], the values for the IC50 (at DNA-PK; in series [2]) were 0.5 to 1 nM and 100 to 1000 nM, respectively. For the same molecule, the EC50 in series [3] (setting [4]) and in series [3] (setting [6]) was 1000 to 10000 nM in each case.

For `CC(C)S(=O)(=O)Nc1cnc2cc(N3CCOCC3)nc(O[C@H]3CC[C@@H](Nc4ncccn4)CC3)c2c1` [Compound 187, N-(7-morpholino-5-(((1s,4s)-4-(pyrimidin-2-ylamino)cyclohexyl)oxy)-1,6-naphthyridin-3-yl)propane-2-sulfonamide], the concentration for half-maximal inhibition (IC50) at DNA-PK lay in the range of 1 to 10 nM; in series [2], 1000 to 10000 nM. Besides, the 50% effective concentration (EC50) in series [3] (setting [4]) and in series [3] (setting [6]) was 10000 to 100000 nM each time.

For the molecule `CCS(=O)(=O)Nc1cnc2cc(N3CCOCC3)nc(O[C@H]3CC[C@@H](Nc4ncccn4)CC3)c2c1` [Compound 188, N-(7-morpholino-5-(((1s,4s)-4-(pyrimidin-2-ylamino)cyclohexyl)oxy)-1,6-naphthyridin-3-yl)ethanesulfonamide], the IC50 at DNA-PK was less than 0.5 nM; in series [2], 100 to 1000 nM. Also, the concentration giving a half-maximal response (EC50) in series [3] (setting [4]) and in series [3] (setting [6]) was 1000 to 10000 nM in each case.

As to `CCCS(=O)(=O)Nc1cnc2cc(N3CCOCC3)nc(O[C@H]3CC[C@@H](Nc4ncccn4)CC3)c2c1` [Compound 189, N-(7-morpholino-5-(((1s,4s)-4-(pyrimidin-2-ylamino)cyclohexyl)oxy)-1,6-naphthyridin-3-yl)propane-1-sulfonamide], the IC50 is 1 to 10 nM at DNA-PK and 1000 to 10000 nM in series [2]. The EC50 in series [3] (setting [4]) and in series [3] (setting [6]) was 10000 to 100000 nM in each case.

As to `CN(c1ncccn1)[C@H]1CC[C@@H](Oc2nc(N3CCOCC3)cc3ncc(NS(C)(=O)=O)cc23)CC1` [Compound 198, N-(5-(((1s,4s)-4-(methyl(pyrimidin-2-yl)amino)cyclohexyl)oxy)-7-morpholino-1,6-naphthyridin-3-yl)methanesulfonamide], the IC50 at DNA-PK is 0.5 to 1 nM; in series [2], less than 100 nM. In addition, the concentration giving a half-maximal response (EC50) in series [3] (setting [4]) and in series [3] (setting [6]) was 500 to 1000 nM throughout.

In the case of `N#Cc1cnc2cc(N3CCOCC3)nc(O[C@H]3CC[C@@H](Nc4ncccn4)CC3)c2c1` [Compound 200a, 7-morpholino-5-(((1s,4s)-4-(pyrimidin-2-ylamino)cyclohexyl)oxy)-1,6-naphthyridine-3-carbonitrile], the IC50 lay in the range of 0.5 to 1 nM on DNA-PK and 100 to 1000 nM in series [2]. For the same molecule, the concentration for a half-maximal effect (EC50) in series [3] (setting [4]) and in series [3] (setting [6]) was 1000 to 10000 nM in each case.

As to `COc1cnc(N[C@H]2CC[C@@H](Oc3nc(N4CCOCC4)cc4ncc(I)cc34)CC2)nc1` [Compound 201, N-((1s,4s)-4-((3-iodo-7-morpholino-1,6-naphthyridin-5-yl)oxy)cyclohexyl)-5-methoxypyrimidin-2-amine], the IC50 fell in the range of 1 to 10 nM at DNA-PK and 10000 to 30000 nM in series [2]. Further, the EC50 in series [3] (setting [4]) and in series [3] (setting [6]) was 10000 to 100000 nM throughout.
